Values of other authors, collected in patent publication US12350300B2, “Use of dopamine producing products to increase vaccine efficacy” (Iowa State University Research Foundation, Inc., priority 2021, dated 2025).

Experiments:
mouse colitis = settings: Herak-Perkovic 2001
circular muscle = settings: read-out: EC50, contractions
longitudinal muscle = settings: read-out: EC50, relaxation

For `NCCc1ccc(O)c(O)c1` [dopamine], the “effect against the development of inflammation” value (mouse colitis) is listed as “protective effect”, the EC50 (circular muscle) is listed as 6.3 µM and the EC50 (longitudinal muscle) is listed as 29 µM.
